Measurements: patent publication US6576268B2, “Biologically active fraction of vegetable melanin, process for its production and its use” (priority 1998, dated 2003)

Test: SOD-like activity and IC50, chemiluminometric method (PHOTOCHEM, set FAT Berlin)
Format: biochemical
Conditions: fytomelanin with 10^19 spin/g
Procedure: To determine the SOD-like activity a chemiluminometric method using the chemiluminometer PHOTOCHEM was used, where the set FAT, Berlin for the SOD activity was used for the determination. The measurements were performed with the measuring time of 3 minutes, and the area integral of the chemiluminiscent curve was recorded. The value was recalculated to the unit SOD activity (by weight), and it represents 0.2 of the SOD activity.

With “SOD: superoxide dismutase, molecular weight 32000, reference enzyme” the “-log IC50” value was 8.064 and the “% SOD activity” value (relative to SOD = 100) was 100.00%.
